US11407749B2, “Heterocyclic compounds as immunomodulators” (Incyte Corporation, priority 2015, dated 2022)

What follows are compounds tested against PD-1/PD-L1 protein/protein interaction (Homo sapiens (Human), UniProt Q9NZQ7) (assay: PD-1/PD-L1 Homogeneous Time-Resolved Fluorescence (HTRF) Binding Assay). Settings: recombinant human PD-L1 (19-238)-His and PD-1 (25-167)-Fc, 25° C., PBS pH 7.4.
Description: Example A. PD-1/PD-L1 Homogeneous Time-Resolved Fluorescence (HTRF) Binding Assay
The assays were conducted in a standard black 384-well polystyrene plate with a final volume of 20 μL. Inhibitors were first serially diluted in DMSO and then added to the plate wells before the addition of other reaction components. The final concentration of DMSO in the assay was 1%. The assays were carried out at 25° C. in the PBS buffer (pH 7.4) with 0.05% Tween-20 and 0.1% BSA. Recombinant human PD-L1 protein (19-238) with a His-tag at the C-terminus was purchased from AcroBiosystems (PD1-H5229). Recombinant human PD-1 protein (25-167) with Fc tag at the C-terminus was also purchased from AcroBiosystems (PD1-H5257). PD-L1 and PD-1 proteins were diluted in the assay buffer and 10 μL was added to the plate well. Plates were centrifuged and proteins were preincubated with inhibitors for 40 minutes. The incubation was followed by the addition of 10 μL of HTRF detection buffer supplemented with Europium cryptate-labeled anti-human IgG (PerkinElmer-AD0212) specific for Fc and anti-His antibody conjugated to SureLight®-Allophycocyanin (APC, PerkinElmer-AD0059H). After centrifugation, the plate was incubated at 25° C. for 60 min. before reading on a PHERAstar FS plate reader (665 nm/620 nm ratio). Final concentrations in the assay were […], 10 nM PD-L1, 1 nM europium anti-human IgG and 20 nM anti-His-Allophycocyanin. IC50 determination was performed by fitting the curve of percent control activity versus the log of the inhibitor concentration using the GraphPad Prism 5.0 software.

PD-1/PD-L1 protein/protein interaction, sequence (Q9NZQ7 19-238): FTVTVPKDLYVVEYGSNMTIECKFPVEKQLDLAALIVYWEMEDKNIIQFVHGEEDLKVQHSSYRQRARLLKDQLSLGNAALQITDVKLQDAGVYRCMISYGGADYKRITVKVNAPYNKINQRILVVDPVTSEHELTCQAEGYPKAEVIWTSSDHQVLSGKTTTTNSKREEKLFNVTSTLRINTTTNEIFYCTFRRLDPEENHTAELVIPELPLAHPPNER

| SMILES | IC50 [nM] |
| --- | --- |
| N#Cc1c(-c2ccc3c(c2)OCCO3)cccc1-c1nc2c(C#N)cc(CNCCO)cn2n1 [Example 26, 2-[2-cyano-3-(2,3-dihydro-1,4-benzodioxin-6-yl)phenyl]-6-{[(2-hydroxyethyl)amino]methyl}[1,2,4]triazolo[1,5-a]pyridine-8-carbonitrile] | ≤ 100 |
| Cc1c(-c2ccccc2)cccc1-c1cn2nc(CNCC#N)cnc2n1 [Example 6, 2-((6-(2-methylbiphenyl-3-yl)imidazo[1,2-b][1,2,4]triazin-2-yl)methylamino)acetonitrile] | 100 to 500 |
| Cc1c(-c2ccccc2)cccc1-c1cn2cc(CNCCO)cc(Cl)c2n1 [Example 11, 2-((8-chloro-2-(2-methylbiphenyl-3-yl)imidazo[1,2-a]pyridin-6-yl)methylamino)ethanol] | 100 to 500 |
| N#CCc1cc(CNCCO)cn2nc(-c3cccc(-c4ccc5c(c4)OCCO5)c3C#N)nc12 [Example 27, 2-(8-(cyanomethyl)-6-{[(2-hydroxyethyl)amino]methyl}[1,2,4]triazolo[1,5-a]pyridin-2-yl)-6-(2,3-dihydro-1,4-benzodioxin-6-yl)benzonitrile] | ≤ 100 |
| Cc1c(-c2ccccc2)cccc1-c1nc2c(CC#N)cc(CNCCO)cn2n1 [Example 24, [6-{[(2-hydroxyethyl)amino]methyl}-2-(2-methylbiphenyl-3-yl)[1,2,4]triazolo[1,5-a]pyridin-8-yl]acetonitrile] | ≤ 100 |
| Cc1c(-c2ccccc2)cccc1-c1cc2cc(CN3CCCC[C@H]3C(=O)O)ccn2c1 [Example 3, (2S)-1-{[2-(2-methylbiphenyl-3-yl)indolizin-7-yl]methyl}piperidine-2-carboxylic acid] | 100 to 500 |
| Cc1c(-c2ccccc2)cccc1-c1nc2cc(CN3CCCC[C@H]3C(=O)O)ccn2n1 [Example 17, (2S)-1-{[2-(2-methylbiphenyl-3-yl)[1,2,4]triazolo[1,5-a]pyridin-7-yl]methyl}piperidine-2-carboxylic acid] | 100 to 500 |
| Cc1c(-c2ccccc2)cccc1-c1cn2cc(CNCCO)cnc2n1 [Example 12, 2-({[2-(2-methylbiphenyl-3-yl)imidazo[1,2-a]pyrimidin-6-yl]methyl}amino)ethanol] | 100 to 500 |
| Cc1c(-c2ccccc2)cccc1-c1cn2nc(CN(C)CCO)cnc2n1 [Example 8, 2-(methyl((6-(2-methylbiphenyl-3-yl)imidazo[1,2-b][1,2,4]triazin-2-yl)methyl)amino)ethanol] | 100 to 500 |
| Cc1c(-c2ccccc2)cccc1-c1cn2cc(CNCCO)ccc2n1 [Example 1, 2-({[2-(2-methylbiphenyl-3-yl)imidazo[1,2-a]pyridin-6-yl]methyl}amino)ethanol] | 100 to 500 |
| Cc1c(-c2ccccc2)cccc1-c1cn2nc(CNCCO)ccc2n1 [Example 15, 2-({[2-(2-methylbiphenyl-3-yl)imidazo[1,2-b]pyridazin-6-yl]methyl}amino)ethanol] | 100 to 500 |
| Cc1c(-c2ccccc2)cccc1-c1cn2nc(CN3CCCC[C@H]3C(=O)O)ccc2n1 [Example 14, (S)-1-((2-(2-methylbiphenyl-3-yl)imidazo[1,2-b]pyridazin-6-yl)methyl)piperidine-2-carboxylic acid] | 500 to 10000 |
| Cc1c(-c2ccccc2)cccc1-c1cn2nc(CNCC(N)=O)cnc2n1 [Example 7, 2-((6-(2-methylbiphenyl-3-yl)imidazo[1,2-b][1,2,4]triazin-2-yl)methylamino)acetamide] | 100 to 500 |
| Cc1c(-c2ccccc2)cccc1-c1cn2cc(CNCCO)ncc2n1 [Example 13, 2-({[2-(2-methylbiphenyl-3-yl)imidazo[1,2-a]pyrazin-6-yl]methyl}amino)ethanol] | ≤ 100 |
| Cc1c(-c2ccccc2)cccc1-c1cc2cc(CNCCO)ccn2c1 [Example 2, 2-({[2-(2-methylbiphenyl-3-yl)indolizin-7-yl]methyl}amino)ethanol] | 100 to 500 |
| Cc1c(-c2ccccc2)cccc1-c1cn2cc(CNCCO)cc(C)c2n1 [Example 9, 2-((8-methyl-2-(2-methylbiphenyl-3-yl)imidazo[1,2-a]pyridin-6-yl)methylamino)ethanol] | 100 to 500 |
| Cc1c(-c2ccccc2)cccc1-c1nc2ccc(CNCCO)cn2n1 [Example 18, 2-({[2-(2-methylbiphenyl-3-yl)[1,2,4]triazolo[1,5-a]pyridin-6-yl]methyl}amino)ethanol] | ≤ 100 |
| Cc1c(-c2ccccc2)cccc1-c1nc2ccc(CN3CCCC[C@H]3C(=O)O)cn2n1 [Example 19, (2S)-1-{[2-(2-methylbiphenyl-3-yl)[1,2,4]triazolo[1,5-a]pyridin-6-yl]methyl}piperidine-2-carboxylic acid] | 100 to 500 |
| Cc1c(-c2ccccc2)cccc1-c1cc2cc(CN3CCCC[C@H]3C(=O)O)ncn2c1 [Example 4, (2S)-1-{[6-(2-methylbiphenyl-3-yl)pyrrolo[1,2-c]pyrimidin-3-yl]methyl}piperidine-2-carboxylic acid] | 500 to 10000 |
| Cc1c(-c2ccccc2)cccc1-c1nc2c(Cl)cc(CNCCO)cn2n1 [Example 21, 2-({[8-chloro-2-(2-methylbiphenyl-3-yl)-[1,2,4]triazolo[1,5-a]pyridin-6-yl]methyl}amino)ethanol] | ≤ 100 |
| Cc1c(-c2ccccc2)cccc1-c1nc2c(CCCC#N)cc(CNCCO)cn2n1 [Example 23, 4-[6-{[(2-hydroxyethyl)amino]methyl}-2-(2-methylbiphenyl-3-yl)[1,2,4]triazolo[1,5-a]pyridin-8-yl]butanenitrile] | ≤ 100 |
| Cc1c(-c2ccccc2)cccc1-c1cn2cc(CN3CCCC[C@H]3C(=O)O)cc(C)c2n1 [Example 10, (S)-1-((8-methyl-2-(2-methylbiphenyl-3-yl)imidazo[1,2-a]pyridin-6-yl)methyl)piperidine-2-carboxylic acid] | 100 to 500 |
| Cc1c(-c2ccccc2)cccc1-c1cn2nc(CNCCO)cnc2n1 [Example 5, 2-((6-(2-methylbiphenyl-3-yl)imidazo[1,2-b][1,2,4]triazin-2-yl)methylamino)ethanol] | ≤ 100 |
| Cc1c(-c2ccccc2)cccc1-c1nc2cc(CNCCO)nc(C)n2n1 [Example 20, 2-({[5-methyl-2-(2-methylbiphenyl-3-yl)[1,2,4]triazolo[1,5-c]pyrimidin-7-yl]methyl}amino)ethanol] | ≤ 100 |
| N#Cc1c(-c2ccc3c(c2)OCCO3)cccc1-c1nc2c(Cl)cc(CNCCO)cn2n1 [Example 25, 2-(8-chloro-6-{[(2-hydroxyethyl)amino]methyl}[1,2,4]triazolo[1,5-a]pyridin-2-yl)-6-(2,3-dihydro-1,4-benzodioxin-6-yl)benzonitrile] | ≤ 100 |
| Cc1c(-c2ccccc2)cccc1-c1nc2cc(CNCCO)ccn2n1 [Example 16, 2-({[2-(2-methylbiphenyl-3-yl)[1,2,4]triazolo[1,5-a]pyridin-7-yl]methyl}amino)ethanol] | ≤ 100 |
| COCCNc1cc(CNCCO)cn2nc(-c3cccc(-c4ccccc4)c3C)nc12 [Example 22, 2-({[8-[(2-methoxyethyl)amino]-2-(2-methylbiphenyl-3-yl)[1,2,4]triazolo[1,5-a]pyridin-6-yl]methyl}amino)ethanol] | 100 to 500 |
